Test results: patent publication US20080292550A1, “Fluorinated 3'-Deoxythymidine Derivatives, a Method for Their Preparation and Their Use” (MAX-DELBRUECK-CENTRUM FUER MOLEKULARE MEDIZIN, priority 2005, published 2008)
“Also recorded” adds a separate entry of the source. Like-named read-outs stand apart in the source and are kept apart here.

Legend:
[1] = system: non-parvicellular lung tumor; assay: Organ activities in lung tumor-bearing nude mice; conditions: about 0.5 MBq non-quenched tracer i.v.
[2] = quenched product
melanoma = assay: Organ activities in melanoma-bearing nude mice
Text: A prognosis as to the tumor/background ratio in a tumor image can be made by means of the tumor/blood radioactivity ratio of a tracer in a tumor model.

B cell lymphoma = conditions: 0.1 MBq, B cell lymphoma mouse model; cited from earlier work
[3] = Wagner et al., Cancer Research 2003; cited from earlier work
fibrosarcoma = conditions: about 2.5 MBq, fibrosarcoma mouse model; cited from earlier work
[4] = about 0.5 MBq quenched tracer i.v., after 60 min

Q: What does the source list for `[N-]=[N+]=N[C@H]1C[C@H](n2cc(C([18F])[18F])c(=O)[nH]c2=O)O[C@@H]1CO` [α,α-^18F2-AZT, 5,5-^18F-difluoro-3′-deoxy-3′-azidothymidine]?
A: absorption of 18F in bone tissue ([1]; 30 and 60 min): particularly high; storage of activity in organs ([1]; organ activities after 30 min and 60 min): activity was stored in the tumor, in the spleen and in the colon; stability in serum ([2]; serum at room temperature (21° C.)): A similar result; stability in serum ([2]; serum in an incubator at 37° C.): markedly improved stability; tumor/blood radioactivity ratio (melanoma; [4]): 3.2; tumor/organ radioactivity ratios (melanoma; [4]): high; storage of 18F in bone (melanoma; about 0.5 MBq quenched tracer i.v., compared with non-quenched product): lower; PET imaging of tumor (melanoma; melanoma mouse model): allows PET imaging of melanoma in a mouse model; passage of the blood-brain barrier (melanoma; mouse animal experiments): passes the blood-brain barrier; also recorded: capable of passing the blood-brain barrier; storage in tumor (melanoma; mouse model, lung tumor and melanoma (summary)): stored in lung tumor and in melanoma; increase of the fluoride concentration (isotonic NaCl solution at 21° C., over 4 hours, quenched with triethylamine): scarcely any increase; stability in isotonic NaCl solution (isotonic NaCl solution, room temperature, before quenching step): stable; increase of the F ion concentration (isotonic NaCl solution, room temperature, within 1 hour, before quenching step): 3 to 4.5%

Q: For `Cc1cn([C@H]2C[C@H]([18F])[C@@H](CO)O2)c(=O)[nH]c1=O` [^18F-FLT, 3′-^18F-fluoro-3′-deoxythymidine], which tumor/blood radioactivity ratio (B cell lymphoma) is on record?
A: about 7

Q: And the “storage in the spleen of mice” value [3]?
A: Marked storage

Q: And the tumor/blood radioactivity ratio (fibrosarcoma)?
A: 1.8
